For experiment [1], the system named is Streptococcus pneumoniae. Kind of experiment: Antibacterial activity against Streptococcus pneumoniae ATCC 49619. The class given is functional.
Experiment [2] relates to Staphylococcus aureus. Kind of experiment: Antibacterial activity against Staphylococcus aureus ATCC 13709. The class given is functional.
Experiment [3] deals with Escherichia coli. Kind of experiment: Antibacterial activity against Escherichia coli KL16. In kind it is functional.
Experiment [4] can be described thus: Inhibition of bacterial DNA gyrase.

Converted amounts (≈) assume the structure as drawn.

With `CCOC(=O)c1cc2c(cc1C(=O)NC1CCc3nn(-c4ccnc5ccc(OC)nc45)cc3C1)NC(=O)CS2` (centres undefined), the MIC (in general, the least concentration at which growth counts as inhibited) in experiment [1] was above 16 µg/mL; in experiment [2], 0.5 µg/mL (≈ 0.895 µM); in experiment [3], above 16 µg/mL.

On to `COc1ccc2nccc(-n3cc4c(n3)CCC(NC(=O)c3cc5c(cc3C(F)(F)F)SCC(=O)N5)C4)c2n1` (centres undefined), for which the figures for the MIC in experiment [1], in experiment [2] and in experiment [3] were 8 µg/mL (≈ 14.4 µM), 0.125 µg/mL (≈ 0.225 µM) and 4 µg/mL (≈ 7.21 µM), respectively. In addition, in experiment [4], the IC50 (usually the concentration that inhibits the measured activity by half) was 0.25 µg/mL (≈ 0.451 µM).

With `COc1ccc2nccc(-n3cc4c(n3)CCC(NC(=O)c3cc5c(cc3C)SCC(=O)N5)C4)c2c1` (centres undefined), the MIC in experiment [1] is 16 µg/mL (≈ 32 µM); in experiment [2], 0.5 µg/mL (≈ 1 µM); in experiment [3] it was 8 µg/mL (≈ 16 µM).

`COc1ccc2nccc(-n3cc4c(n3)CCC(NC(=O)c3ccc(C)c([N+](=O)[O-])c3)C4)c2n1` (centres undefined): the MIC came to 8 µg/mL (≈ 17.4 µM) in experiment [1] and 0.25 µg/mL (≈ 0.545 µM) in experiment [2].

On to `COc1ccc2nccc(-n3cc4c(n3)CCC(NC(=O)/C=C/c3ccccc3)C4)c2n1` (centres undefined), for which the results for the minimal inhibitory concentration (MIC) in experiment [1] and in experiment [2] were 2 µg/mL (≈ 4.7 µM) and 0.25 µg/mL (≈ 0.588 µM), respectively. The IC50 in experiment [4] was found to be 8 µg/mL (≈ 18.8 µM).

Consider `COc1ccc2nccc(-n3cc4c(n3)CCC(NC(=O)c3cc5c(cc3OC)SCC(=O)N5)C4)c2n1` (centres undefined), for which the values for the MIC in experiment [1], in experiment [2] and in experiment [3] were 16 µg/mL (≈ 31 µM), 2 µg/mL (≈ 3.87 µM) and above 16 µg/mL, respectively.

With `COc1ccc2nccc(-n3cc4c(n3)CCC(NC(=O)c3ccc(C)c([N+](=O)[O-])c3)C4)c2c1` (centres undefined), the results for the MIC in experiment [1] and in experiment [2] were 4 µg/mL (≈ 8.74 µM) and 0.25 µg/mL (≈ 0.546 µM), respectively. In experiment [4], this compound gave an IC50 above 16 µg/mL.

Turning to `COc1ccc2nccc(-n3cc4c(n3)CCC(NC(=O)c3cc(F)c(Cl)cc3Cl)C4)c2c1` (centres undefined), the MIC in experiment [1] was 8 µg/mL (≈ 16.5 µM); in experiment [2] it was 0.25 µg/mL (≈ 0.515 µM).

Consider `COc1ccc2nccc(-n3cc4c(n3)CCC(NC(=O)c3c(F)cc5c(c3F)NC(=O)CS5)C4)c2n1` (centres undefined), for which the MIC in experiment [1] was 4 µg/mL (≈ 7.65 µM); in experiment [2] it was 0.125 µg/mL (≈ 0.239 µM); in experiment [3] it was above 128 µg/mL. In experiment [4], this compound had an IC50 of 1 µg/mL (≈ 1.91 µM).

`COc1ccc2nccc(-n3cc4c(n3)CCC(NC(=O)c3cc5c(cc3C(=O)O)SCC(=O)N5)C4)c2c1` (centres undefined): the figures for the MIC in experiment [1], in experiment [2] and in experiment [3] were above 16 µg/mL, 1 µg/mL (≈ 1.89 µM) and above 16 µg/mL, respectively.

The compound `O=C(O)c1cn(C2CC2)c2cc(N3CCNCC3)c(F)cc2c1=O` [CIPROFLOXACIN] had an MIC in experiment [2] of 0.25 µg/mL (≈ 0.754 µM).

With `COc1ccc2nccc(-n3cc4c(n3)CCC(NC(=O)c3cc5c(cc3C(=O)O)SCC(=O)N5)C4)c2n1` (centres undefined), the figures for the MIC in experiment [1], in experiment [2] and in experiment [3] were 16 µg/mL (≈ 30.2 µM), 0.5 µg/mL (≈ 0.942 µM) and above 16 µg/mL, respectively.

Consider `COc1ccc2nccc(-n3cc4c(n3)CCC(NC(=O)c3c(F)cc5c(c3F)NC(=O)CS5)C4)c2c1` (centres undefined), for which the MIC came out at 1 µg/mL (≈ 1.92 µM) in experiment [1], 0.125 µg/mL (≈ 0.24 µM) in experiment [2] and 8 µg/mL (≈ 15.3 µM) in experiment [3]. In experiment [4], the IC50 came out at 1 µg/mL (≈ 1.92 µM).

On to `COc1ccc2nccc(-n3cc4c(n3)CCC(NC(=O)c3cc5c(cc3C)SCC(=O)N5)C4)c2n1` (centres undefined), for which the results for the MIC in experiment [1], in experiment [2] and in experiment [3] were above 16 µg/mL, 0.25 µg/mL (≈ 0.499 µM) and above 16 µg/mL, respectively.

Consider `COc1ccc2nccc(-n3cc4c(n3)CCC(NC(=O)c3cc5c(cc3Cl)SCC(=O)N5)C4)c2c1` (centres undefined), for which the MIC in experiment [1] was 2 µg/mL (≈ 3.85 µM); in experiment [2] it was below 0.125 µg/mL; in experiment [3], 2 µg/mL (≈ 3.85 µM). The IC50 in experiment [4] was found to be 0.5 µg/mL (≈ 0.962 µM).

Regarding `COc1ccc2nccc(-n3cc4c(n3)CCC(NC(=O)c3ccc5c(c3)OCCO5)C4)c2c1` (centres undefined), the MIC in experiment [1] is 8 µg/mL (≈ 17.5 µM); in experiment [2], 2 µg/mL (≈ 4.38 µM); in experiment [3], above 128 µg/mL. The compound also had an IC50 in experiment [4] of 4 µg/mL (≈ 8.76 µM).

Turning to `COc1ccc2nccc(-n3cc4c(n3)CCC(NC(=O)c3cc5c(cc3Cl)SCC(=O)N5)C4)c2n1` (centres undefined), the minimal inhibitory concentration (MIC) in experiment [1] was 4 µg/mL (≈ 7.68 µM); in experiment [2], below 0.125 µg/mL; in experiment [3], 2 µg/mL (≈ 3.84 µM). The IC50 in experiment [4] is 0.12 µg/mL (≈ 0.23 µM).

With `COc1ccc2nccc(-n3cc4c(n3)CCC(NCCCc3ccccc3)C4)c2n1` (centres undefined), the MIC was below 0.125 µg/mL in experiment [1] and 0.25 µg/mL (≈ 0.605 µM) in experiment [2]. This compound also came in with an IC50 in experiment [4] of 0.8 µg/mL (≈ 1.93 µM).

Regarding `CCOC(=O)c1cc2c(cc1C(=O)NC1CCc3nn(-c4ccnc5ccc(OC)cc45)cc3C1)NC(=O)CS2` (centres undefined), the MIC is above 16 µg/mL in experiment [1], 2 µg/mL (≈ 3.59 µM) in experiment [2] and above 16 µg/mL in experiment [3].

Source of the values: ChEMBL document CHEMBL1147922, “Tetrahydroindazole inhibitors of bacterial type II topoisomerases. Part 2: SAR development and potency against multidrug-resistant strains” (Bioorg Med Chem Lett, 2007).
